Source: the NIST ThermoML archive (doi:10.1016/j.jct.2005.02.011)

How the values were obtained:
[1] = xn = mol fraction of the nth substance listed; conditions: 298.15 K, 101.33 kPa, Liquid
[2] = excess molar enthalpy (molar enthalpy of mixing); xn = mol fraction of the nth substance listed; conditions: 298.15 K, 101.33 kPa, Liquid
[3] = 298.15 K; 101.33 kPa; Liquid

COC(F)(F)C(F)(F)C(F)(F)C(F)(F)F [1-methoxy-nonafluorobutane] + COCCOCCO
Conditions | mass density [kg/m3]
[1], x1 = 1 | 1516.5

COC(F)(F)C(F)(F)C(F)(F)C(F)(F)F [1-methoxy-nonafluorobutane] + CCOCCO
Conditions | excess molar enthalpy [kcal/mol] | mass density [kg/m3]
[1], x1 = 0.00503 | – | 929.7
[1], x1 = 0.01079 | – | 934.97
[1], x1 = 0.02102 | – | 944.32
[1], x1 = 0.02987 | – | 952.74
[1], x1 = 0.04002 | – | 961.9
[1], x1 = 0.04998 | – | 970.86
[1], x1 = 0.05985 | – | 979.66
[1], x1 = 0.07003 | – | 988.6
[1], x1 = 0.07976 | – | 997.21
[1], x1 = 0.09179 | – | 1007.4
[1], x1 = 0.09978 | – | 1014.34
[1], x1 = 0.1998 | – | 1094.44
[1], x1 = 0.2999 | – | 1166.16
[1], x1 = 0.3998 | – | 1230.34
[1], x1 = 0.4998 | – | 1288.32
[1], x1 = 0.5999 | – | 1340.92
[1], x1 = 0.6998 | – | 1389.17
[1], x1 = 0.7996 | – | 1433.24
[1], x1 = 0.9003 | – | 1475.39
[1], x1 = 0.9098 | – | 1479.22
[1], x1 = 0.9198 | – | 1482.97
[1], x1 = 0.9304 | – | 1487.24
[1], x1 = 0.9399 | – | 1491.41
[1], x1 = 0.9502 | – | 1495.54
[1], x1 = 0.9587 | – | 1499
[1], x1 = 0.969 | – | 1503.23
[1], x1 = 0.9802 | – | 1507.87
[1], x1 = 0.9901 | – | 1512.09
[1], x1 = 0.9949 | – | 1514.04
[1], x1 = 1 | – | 1516.5
[2], x1 = 0.05001 | 0.0376 | –
[2], x1 = 0.1 | 0.0615 | –
[2], x1 = 0.2 | 0.0937 | –
[2], x1 = 0.3 | 0.117 | –
[2], x1 = 0.4001 | 0.135 | –
[2], x1 = 0.5001 | 0.149 | –
[2], x1 = 0.5501 | 0.153 | –
[2], x1 = 0.6001 | 0.158 | –
[2], x1 = 0.6501 | 0.159 | –
[2], x1 = 0.7 | 0.159 | –
[2], x1 = 0.75 | 0.157 | –
[2], x1 = 0.8 | 0.151 | –
[2], x1 = 0.85 | 0.141 | –
[2], x1 = 0.9 | 0.121 | –
[2], x1 = 0.95 | 0.0866 | –
[2], x1 = 0.9507 | 0.0867 | –
[2], x1 = 0.975 | 0.056 | –

COC(F)(F)C(F)(F)C(F)(F)C(F)(F)F [1-methoxy-nonafluorobutane] + COCCOCCOC
Conditions | excess molar enthalpy [kcal/mol] | mass density [kg/m3]
[1], x1 = 0.02464 | – | 954.08
[1], x1 = 0.0497 | – | 969.75
[1], x1 = 0.1001 | – | 1001.04
[1], x1 = 0.1498 | – | 1031.72
[1], x1 = 0.1998 | – | 1062.36
[1], x1 = 0.2496 | – | 1092.61
[1], x1 = 0.2994 | – | 1122.54
[1], x1 = 0.3493 | – | 1152.22
[1], x1 = 0.3998 | – | 1181.93
[1], x1 = 0.4496 | – | 1210.92
[1], x1 = 0.4998 | – | 1239.78
[1], x1 = 0.5495 | – | 1268.27
[1], x1 = 0.5999 | – | 1296.83
[1], x1 = 0.6499 | – | 1324.79
[1], x1 = 0.6993 | – | 1352.36
[1], x1 = 0.7495 | – | 1380.12
[1], x1 = 0.7996 | – | 1407.65
[1], x1 = 0.8498 | – | 1435.09
[1], x1 = 0.8997 | – | 1462.11
[1], x1 = 0.9498 | – | 1489.22
[1], x1 = 0.9749 | – | 1502.87
[1], x1 = 1 | – | 1516.5
[2], x1 = 0.05001 | 0.0399 | –
[2], x1 = 0.1 | 0.066 | –
[2], x1 = 0.15 | 0.081 | –
[2], x1 = 0.2 | 0.0883 | –
[2], x1 = 0.25 | 0.0919 | –
[2], x1 = 0.3 | 0.0915 | –
[2], x1 = 0.35 | 0.0883 | –
[2], x1 = 0.4001 | 0.0839 | –
[2], x1 = 0.5001 | 0.0705 | –
[2], x1 = 0.6001 | 0.0546 | –
[2], x1 = 0.7 | 0.038 | –
[2], x1 = 0.8 | 0.022 | –
[2], x1 = 0.9 | 0.00844 | –
[2], x1 = 0.95 | 0.00265 | –

CCOCCO [2-ethoxyethan-1-ol] + COC(F)(F)C(F)(F)C(F)(F)C(F)(F)F
Conditions | mass density [kg/m3]
[1], x2 = 0 | 924.92

COCCOCCO [2-(2-methoxyethoxy)ethanol] + COC(F)(F)C(F)(F)C(F)(F)C(F)(F)F
Conditions | excess molar enthalpy, [2] [kcal/mol] | mass density, [1] [kg/m3]
x2 = 0 | – | 1015.6
x2 = 0.02479 | – | 1031.94
x2 = 0.04975 | – | 1048.37
x2 = 0.05006 | 0.0519 | –
x2 = 0.09963 | – | 1080.8
x2 = 0.1001 | 0.0713 | –
x2 = 0.1498 | – | 1112.38
x2 = 0.1999 | – | 1142.86
x2 = 0.2002 | 0.0873 | –
x2 = 0.2495 | – | 1172.17
x2 = 0.2996 | – | 1200.75
x2 = 0.3003 | 0.0967 | –
x2 = 0.3996 | – | 1254.72
x2 = 0.4003 | 0.102 | –
x2 = 0.4503 | 0.103 | –
x2 = 0.4994 | – | 1304.76
x2 = 0.5003 | 0.103 | –
x2 = 0.5503 | 0.103 | –
x2 = 0.5984 | – | 1351.61
x2 = 0.6003 | 0.103 | –
x2 = 0.6503 | 0.102 | –
x2 = 0.699 | – | 1396.09
x2 = 0.7003 | 0.101 | –
x2 = 0.7499 | – | 1417.68
x2 = 0.7998 | – | 1438.09
x2 = 0.8002 | 0.0953 | –
x2 = 0.85 | – | 1458.09
x2 = 0.8999 | – | 1477.55
x2 = 0.9001 | 0.0773 | –
x2 = 0.9501 | 0.055 | 1496.84
x2 = 0.9749 | – | 1506.46

COCCOCCOC [2,5,8-trioxanonane]
Conditions | mass density [kg/m3]
[3] | 938.62

COC(F)(F)C(F)(F)C(F)(F)C(F)(F)F [1-methoxy-nonafluorobutane]
Conditions | mass density [kg/m3]
[3] | 1516.5

COCCOCCO [2-(2-methoxyethoxy)ethanol]
Conditions | mass density [kg/m3]
[3] | 1015.6

CCCCOCCO [2-butoxyethan-1-ol]
Conditions | mass density [kg/m3]
[3] | 896.25

CCOCCO [2-ethoxyethan-1-ol]
Conditions | mass density [kg/m3]
[3] | 924.92

COC(F)(F)C(F)(F)C(F)(F)C(F)(F)F [1-methoxy-nonafluorobutane] + COCCO
Conditions | excess molar enthalpy, [2] [kcal/mol] | mass density, [1] [kg/m3]
x1 = 0.00553 | – | 965.99
x1 = 0.01007 | – | 970.85
x1 = 0.02663 | – | 988.18
x1 = 0.02992 | – | 991.62
x1 = 0.03967 | – | 1001.54
x1 = 0.04976 | – | 1011.78
x1 = 0.05 | 0.0487 | –
x1 = 0.05995 | – | 1021.9
x1 = 0.06979 | – | 1031.53
x1 = 0.07991 | – | 1041.28
x1 = 0.08992 | – | 1050.63
x1 = 0.09992 | – | 1059.88
x1 = 0.1 | 0.0727 | –
x1 = 0.1999 | – | 1144.03
x1 = 0.2 | 0.1 | –
x1 = 0.2999 | – | 1215.05
x1 = 0.3 | 0.119 | –
x1 = 0.4 | – | 1275.68
x1 = 0.4001 | 0.133 | –
x1 = 0.5 | 0.144 | –
x1 = 0.5001 | – | 1328.23
x1 = 0.5501 | 0.149 | –
x1 = 0.5997 | – | 1373.83
x1 = 0.6001 | 0.154 | –
x1 = 0.6501 | 0.153 | –
x1 = 0.7001 | 0.153 | 1414.55
x1 = 0.75 | 0.151 | –
x1 = 0.8001 | 0.146 | –
x1 = 0.8005 | – | 1451
x1 = 0.85 | 0.137 | –
x1 = 0.8997 | – | 1483.83
x1 = 0.9 | 0.121 | –
x1 = 0.9106 | – | 1487.37
x1 = 0.9204 | – | 1490.55
x1 = 0.9304 | – | 1493.65
x1 = 0.9403 | – | 1496.79
x1 = 0.95 | 0.0872 | –
x1 = 0.9508 | – | 1500.13
x1 = 0.9604 | – | 1503.16
x1 = 0.971 | – | 1506.5
x1 = 0.975 | 0.0582 | –
x1 = 0.98 | – | 1509.57
x1 = 0.99 | – | 1512.86
x1 = 0.9948 | – | 1514.59
x1 = 1 | – | 1516.5

COCCO [2-methoxyethan-1-ol] + COC(F)(F)C(F)(F)C(F)(F)C(F)(F)F
Conditions | mass density [kg/m3]
[1], x2 = 0 | 960.01

COC(F)(F)C(F)(F)C(F)(F)C(F)(F)F [1-methoxy-nonafluorobutane] + CCCCOCCO
Conditions | excess molar enthalpy, [2] [kcal/mol] | mass density, [1] [kg/m3]
x1 = 0.02507 | – | 915.04
x1 = 0.05001 | 0.04 | –
x1 = 0.05002 | – | 932.88
x1 = 0.1 | 0.0726 | –
x1 = 0.1001 | – | 969.14
x1 = 0.1499 | – | 1004.19
x1 = 0.1998 | – | 1038.73
x1 = 0.2 | 0.122 | –
x1 = 0.2497 | – | 1072.68
x1 = 0.2995 | – | 1105.83
x1 = 0.3 | 0.157 | –
x1 = 0.3499 | – | 1138.71
x1 = 0.4001 | 0.18 | –
x1 = 0.41 | – | 1176.96
x1 = 0.4499 | – | 1201.93
x1 = 0.5001 | 0.195 | –
x1 = 0.5155 | – | 1242.24
x1 = 0.5499 | – | 1262.86
x1 = 0.5501 | 0.2 | –
x1 = 0.5999 | – | 1292.53
x1 = 0.6001 | 0.202 | –
x1 = 0.65 | – | 1321.64
x1 = 0.6501 | 0.203 | –
x1 = 0.6999 | – | 1350.17
x1 = 0.7 | 0.2 | –
x1 = 0.7499 | – | 1378.23
x1 = 0.75 | 0.194 | –
x1 = 0.8 | 0.184 | 1405.94
x1 = 0.85 | 0.168 | –
x1 = 0.8502 | – | 1433.58
x1 = 0.9 | 0.142 | –
x1 = 0.9002 | – | 1461.09
x1 = 0.95 | 0.1 | 1488.03
x1 = 0.9749 | – | 1501.9
x1 = 0.975 | 0.0629 | –
x1 = 1 | – | 1516.5

COCCOCCOC [2,5,8-trioxanonane] + COC(F)(F)C(F)(F)C(F)(F)C(F)(F)F
Conditions | mass density [kg/m3]
[1], x2 = 0 | 938.62

CCCCOCCO [2-butoxyethan-1-ol] + COC(F)(F)C(F)(F)C(F)(F)C(F)(F)F
Conditions | mass density [kg/m3]
[1], x2 = 0 | 896.25

COCCO [2-methoxyethan-1-ol]
Conditions | mass density [kg/m3]
[3] | 960.01
